One assay deals with CpomOrco (Cydia pomonella, UniProt H9A5M2). Kind of assay: Calcium imaging of HEK293T cells expressing homomeric CpomOrco. The assay is classed as cell-based. To be noted: peak amplitudes normalized to response at 1000 μM agonist, read-out: [A]1/2 half-effective concentration of agonist, calcium response. The method, then: HEK293T cells were grown in HEK cell media [Dulbecco’s modified Eagle’s medium containing 10% fetal bovine serum (MP Biomedicals, Solon, OH, USA), 2.0 mM L-glutamine, and 100 μg/mL Penicillin/Streptomycin (Invitrogen)] at 37 °C and 5% CO2. To test transient expression of CpomORs for calcium imaging or patch-clamp recording experiments, 35-mm petri dishes containing semi-confluent HEK293T cells were transiently transfected. To transfect cells with CpomOrco, we used 1.0 μg of pcDNA5/TO/CpomOrco DNA. In order to promote expression of the OR[51], we used double aliquots for pcDNA5/TO/CpomOR DNAs (2.0 μg), combined with 1.0 μg of pcDNA5/TO/CpomOrco for co-transfections (CpomOrco + ORs). […]
Chain of CpomOrco (H9A5M2 entry or part of it): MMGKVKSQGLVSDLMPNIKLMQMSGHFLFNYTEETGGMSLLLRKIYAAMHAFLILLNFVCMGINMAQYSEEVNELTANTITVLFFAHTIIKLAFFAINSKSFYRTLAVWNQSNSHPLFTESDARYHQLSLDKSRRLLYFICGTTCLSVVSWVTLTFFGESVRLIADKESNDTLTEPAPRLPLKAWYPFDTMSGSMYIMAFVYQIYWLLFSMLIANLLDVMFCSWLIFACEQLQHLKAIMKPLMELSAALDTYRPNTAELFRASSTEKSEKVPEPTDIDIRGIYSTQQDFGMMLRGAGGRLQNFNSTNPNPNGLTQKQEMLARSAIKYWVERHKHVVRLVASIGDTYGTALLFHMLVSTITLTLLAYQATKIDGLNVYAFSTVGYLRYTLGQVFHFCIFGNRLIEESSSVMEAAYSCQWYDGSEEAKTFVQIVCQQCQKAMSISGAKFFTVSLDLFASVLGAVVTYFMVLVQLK
(§1) Fluorescence imaging was performed using Imaging Workbench 6 software (INDEC BioSystems, Santa Clara, CA, USA). Each cell was assigned a region of interest (ROI) and changes in fluorescence intensity within each ROI were measured and expressed as the fractional change in fluorescence intensity (dF) or in some cases as dF/F0 where F0 is the basal fluorescence level before agonist application. […] Continuous traces of multiple responses were compensated for slow drift of the baseline fluorescence when necessary. […]

A further assay concerns CpomOrco + OR complexes. Kind of assay: Calcium imaging of HEK293T cells expressing heteromeric CpomOrco + OR complexes. The assay is classed as cell-based, Cydia pomonella. The following applies: heteromeric complexes; peak amplitudes normalized to response at 1000 μM agonist; read-out: [A]1/2 half-effective concentration of agonist, calcium response. As to the method:
HEK293T cells were grown in HEK cell media [Dulbecco’s modified Eagle’s medium containing 10% fetal bovine serum (MP Biomedicals, Solon, OH, USA), 2.0 mM L-glutamine, and 100 μg/mL Penicillin/Streptomycin (Invitrogen)] at 37 °C and 5% CO2. To test transient expression of CpomORs for calcium imaging or patch-clamp recording experiments, 35-mm petri dishes containing semi-confluent HEK293T cells were transiently transfected. To transfect cells with CpomOrco, we used 1.0 μg of pcDNA5/TO/CpomOrco DNA. In order to promote expression of the OR[51], we used double aliquots for pcDNA5/TO/CpomOR DNAs (2.0 μg), combined with 1.0 μg of pcDNA5/TO/CpomOrco for co-transfections (CpomOrco + ORs). To report expression for calcium imaging experiments, 1.0 μg of a separate plasmid DNA [pEBFP2-Nuc, a gift from Robert Campbell (Addgene plasmid # 14893[52])] carrying the coding sequence for a blue fluorescent protein (BFP) was used. In patch-clamp recordings, 1.0 μg of a separate plasmid DNA (pXOOM, Clontech) carrying the coding sequence for a green fluorescent protein (GFP) was used to report expression. In order to report candidate OR-expressing cells, expression of both fluorescent reporter genes was under the regulation of the same promoter for CpomOR genes (CMV). Transfection DNAs were dissolved in 100 μL sterile DMEM, mixed with 3.0 μL Calfectin (SignaGen, Rockville, MD, USA) following the recommended protocol. To estimate transfection efficiency, a parallel transfection was conducted using the positive control vector pcDNA5/TO/LACZ (Invitrogen) and staining with 0.1% XGal[53]. […]
as §1

Assay [1] concerns Un-transfected cells (HEK293T). Kind of assay: Whole-cell patch-clamp recording of un-transfected HEK293T cells. The assay is classed as cell-based, human. The following applies: 12 cells tested. As to the method:
The OR channel activity was investigated using whole-cell and outside-out patch-clamp recordings. The currents were measured with a 200B patch-clamp amplifier (Molecular Devices) and a digital interface (Digidata 1320 A, Molecular Devices), low pass filtered at 5.0 kHz, sampled at 1-2 kHz. […] OR channel related currents were investigated at a holding potential of -50/+50 mV unless otherwise specified. The polarity of the currents/voltages was presented relative to intracellular membrane surface. Appropriate corrections for liquid junction potentials were made when necessary. Patch pipettes were fabricated from borosilicate capillary glass (BF150-86-10, Sutter Instrument, CA, USA) using a Flaming-Brown micropipette puller (P-87, Sutter Instrument). Only patches with initial cell-attached seal resistance estimated higher than 1.0 GOhms were used in the experiments. Intracellular (pipette) solution for whole-cell experiments was NaCl 140 mM, EGTA 0.5 mM, Hepes 10 mM, pH 7.4 (adjusted with Tris-base, standard Na^+ 140 mM), while bath solution was usually NaCl 140 mM, CaCl2 1.0 mM, MgCl2 0-1.0 mM, KCl 5.0 mM, Hepes 10 mM, pH 7.4 (adjusted with Tris-base or NaOH). The OR channel current noise was recorded using outside-out patches excised from HEK293T cells and evoked by stimulation with 250 μM VUAA3. […]

As for `CCn1c(SCC(=O)Nc2ccc(C(C)C)cc2)nnc1-c1ccncc1` [VUAA3, acetamide,2-[[4-ethyl-5-(4-pyridinyl)-4H-1,2,4-triazol-3-yl]thio]-N-[4-(1-methylethyl)phenyl]-], the EC50 at CpomOrco is around 362 µM; in the assay with CpomOrco + OR complexes, around 140 µM. For the same compound, the “sensitivity of un-transfected cells” value in assay [1] is “not sensitive”.

For the origin of these results see PMC5259778, “Candidate pheromone receptors of codling moth Cydia pomonella respond to pheromones and kairomones” (Scientific Reports, 2017).
